From article PMC4305510 (Analytical biochemistry, 2014)
Like-named read-outs stand apart in the source and are kept apart here. Each block holds one compound with its values, some of them ahead of it.

Assays:
Sinapis alba myrosinase [1] = test: HPLC progress curves, pooled wavelengths; assay type: biochemical; details: read-out: Km (μM) / HPLC; 0.1 M phosphate pH 7.4, 37 °C; 14.52 U/ml myrosinase
Sinapis alba myrosinase [2] = test: HPLC progress curves, pooled wavelengths; assay type: biochemical; details: read-out: Km (μM) / HPLC, 0.1 M phosphate pH 7.4, 37 °C

Km (Sinapis alba myrosinase [1]): 1160 ± 70 µM
SMILES: O=S(=O)(O)O/N=C(\S[C@@H]1O[C@H](CO)[C@@H](O)[C@H](O)[C@H]1O)c1ccccc1 [compound 5, Phenyl glucosinolate]

Km (Sinapis alba myrosinase [2]; 4.84 U/ml myrosinase): 90.6 ± 6.8 µM
SMILES: O=S(=O)(O)O/N=C(/Cc1ccccc1)S[C@@H]1O[C@H](CO)[C@@H](O)[C@H](O)[C@H]1O [compound 6, glucotropaeolin]

Km (Sinapis alba myrosinase [2]; 4.27 U/ml myrosinase): 168 ± 17 µM
SMILES: C=CC/C(=N/OS(=O)(=O)O)S[C@@H]1O[C@H](CO)[C@@H](O)[C@H](O)[C@H]1O [compound 4, Sinigrin]
